Results on six compounds are retold here after US20150038430A1, “THERAPEUTIC PEPTIDOMIMETIC MACROCYCLES” (AILERON Therapeutics, Inc., priority 2008, published 2015).

Structures are written as SMILES. Numbered stars: 1 amine (or outer) side, 2 acyl side, 3 side chain; on linkers, the order of the positions; unused ones are H or OH. Bridge positions count the residues as written; N and C are the ends. Square brackets hold non-standard residues; d marks the D form. Peptide text beside a SMILES is read from it. * marks the point of attachment. ξ: configuration not given here. ξαMeNle(6-ylidene) = CC(CCCC=[*:3])(N[*:1])C(=O)[*:2]; Nle = CCCC[C@H](N)C(=O)O; Aib = CC(C)(N)C(=O)O; Propionyl = CCC(=O)*

Holding throughout (type): cell-based, human
What all share (conditions): 24 h

For assay [1], the system named is RS4;11. As for the experimental part: (§1) Cell viability assays shown in FIGS. 34-52 were performed according to a similar protocol. Cells were split at optimal cell density a day prior to the initiation of the study. The next day, cells were washed twice in serum-free Opti-MEM media and 4000 cells/well were added to each well in a final volume of […] Opti-MEM. For serum-free experiments, macrocycles were diluted from 2 mM stocks (100% DMSO) in sterile water to prepare 400 μM working solutions. A 40 μM solution was then generated by ten-fold dilution in assay buffer. The macrocycle and controls were then serially diluted two-fold in assay buffer in dosing plates to provide concentrations between 1.2 and 40 μM, respectively. For experiments in 2% human serum, macrocycles were diluted from 10 mM stocks (100% DMSO) in sterile water to prepare 1 mM working solutions. A 100 μM solution was generated by ten-fold dilution in assay buffer. The macrocycles and controls were then serially diluted two-fold in assay buffer in dosing plates to provide concentrations between 3 and 100 μM, respectively. 50 μl of each dilution was then added to the appropriate wells of the test plate to achieve final concentrations of the macrocycle between 0.6 to 20 μM (for serum free experiment) or 1.5 to 50 μM (for 2% serum experiment), respectively. Controls included wells without macrocycles containing the same concentration of DMSO as the macrocycle-containing wells, wells containing 0.1% Triton X-100, and wells containing no cells. Plates were incubated for 24 hours at 37° C. in a humidified 5% CO2 atmosphere. At the end of a 24 hr incubation period, a CellTiter-Glo Luminescent Cell Viability Assay was performed according to manufacturer's instructions (Promega, catalog #G7571) and the luminescence was measured using a BIO-TEK synergy HT Plate reader. Values were plotted as percent viable, i.e. as a percentage of the negative control value (derived from cells exposed to DMSO only). All assays were performed in duplicate.
(§2) The following tables summarize the EC50 values (μM) observed with peptidomimetic macrocycles of the invention in various cell lines: […]

The test system of assay [2] is DHL-6. As to the method: as §1, §2
For assay [3], the system named is Molt-4. As for the experimental part:
as §1, §2

Assay [4] relates to MM1S. As for the experimental part:
as §1, §2

In assay [5] the test system is Jurkat. As for the experimental part:
as §1, §2

Assay [6] deals with OVCAR8. As to the method: as §1, §2
The test system of assay [7] is SEMK2. As for the experimental part:
as §1, §2

The test system of assay [8] is NCI-H82 (SCLC-MCL1+). As to the method: as §1, §2
In assay [9] the test system is PC3. As for the experimental part:
as §1, §2

The subject of assay [10] is A375. As to the method: as §1, §2
The subject of assay [11] is Raji. As to the method:
as §1, §2

The test system of assay [12] is MDA-MB231-Met. As to the method: as §1, §2

For `CCC(=O)N[C@@H](CCCNC(=N)N)C(=O)N[C@@H](CC(N)=O)C(=O)N[C@H](C(=O)N[C@@H](C)C(=O)N[C@@H](CCCNC(=N)N)C(=O)N[C@@H](Cc1c[nH]cn1)C(=O)N[C@@H](CC(C)C)C(=O)N[C@@H](C)C(=O)NC1(C)CCCC=CCCCC(C)(C(=O)N[C@@H](Cc2ccccc2)C(=O)N[C@@H](C)C(=O)N[C@@H](CCCNC(=N)N)C(=O)N[C@@H](CO)C(=O)N[C@H](C(N)=O)[C@@H](C)CC)NC(=O)[C@H](CC(=O)O)NC(=O)C(C)(C)NC(=O)[C@H](C(C)C)NC1=O)[C@@H](C)CC` (some centres unmarked) [SP-9] (Propionyl-RNIARHLA[ξαMeNle(6-ylidene)]V[Aib]D[ξαMeNle(6-ylidene)]FARSI-NH2; staple 9-13), the EC50 in assay [1] was found to be 4300 nM; in assay [2] it was 2700 nM; in [3] it was 1000 nM; in assay [4], 5500 nM; in [5], 1900 nM; in assay [6], 7100 nM. Besides, the 50% effective concentration (EC50) in [7] is 8100 nM; in assay [8], 4200 nM; in assay [9], 5700 nM; in [10], 4100 nM; in [11], 5700 nM; in assay [12] it was 2900 nM.

Regarding `CCCC[C@H](NC(=O)C1(C)CCCC=CCCCC(C)(NC(=O)[C@H](C)NC(=O)[C@H](CC(C)C)NC(=O)[C@H](Cc2c[nH]cn2)NC(=O)[C@H](CCCNC(=N)N)NC(=O)[C@H](C)NC(=O)[C@@H](NC(=O)[C@H](CC(N)=O)NC(=O)[C@H](CCCNC(=N)N)NC(=O)CC)[C@@H](C)CC)C(=O)N[C@@H](C(C)C)C(=O)NCC(=O)N[C@@H](CC(=O)O)C(=O)N1)C(=O)NC(C)(C)C(=O)N[C@@H](CCCNC(=N)N)C(=O)N[C@@H](CO)C(=O)N[C@H](C(N)=O)[C@@H](C)CC` (some centres unmarked) [SP-10] (Propionyl-RNIARHLA[ξαMeNle(6-ylidene)]VGD[ξαMeNle(6-ylidene)][Nle][Aib]RSI-NH2; staple 9-13), the EC50 came to 3500 nM in [1]; 1900 nM in assay [2]; 1900 nM in [3]; 2500 nM in assay [4]; 1900 nM in assay [5]; 8100 nM in [6]. The EC50 in assay [7] turned out to be 8200 nM; in assay [8] it was 5700 nM; in assay [9] it was 6000 nM; in [10] it was 5200 nM; in assay [11], 5000 nM; in [12], 3100 nM.

Take `CC[C@H](C)[C@H](NC(=O)[C@H](Cc1c[nH]c2ccccc12)NC(=O)[C@H](CCCNC(=N)N)NC(C)=O)C(=O)N[C@@H](C)C(=O)N[C@@H](CCC(N)=O)C(=O)N[C@@H](C)C(=O)N[C@@H](CC(C)C)C(=O)N[C@@H](CCCNC(=N)N)C(=O)NC1(C)CCCC=CCCCC(C)(C(=O)N[C@@H](Cc2ccccc2)C(=O)N[C@@H](CC(N)=O)C(=O)N[C@@H](C)C(=O)N[C@@H](Cc2ccccc2)C(=O)N[C@@H](Cc2ccc(O)cc2)C(=O)N[C@@H](C)C(=O)N[C@@H](CCCNC(=N)N)C(=O)N[C@@H](CCCNC(=N)N)C(N)=O)NC(=O)[C@H](CC(=O)O)NC(=O)CNC(=O)[C@H]([C@@H](C)CC)NC1=O` (some centres unmarked) [SP-15] (Ac-RWIAQALR[ξαMeNle(6-ylidene)]IGD[ξαMeNle(6-ylidene)]FNAFYARR-NH2; staple 9-13): the EC50 is 1700 nM in assay [1]; 500 nM in assay [2]; 700 nM in [3]; 600 nM in assay [4]; 400 nM in [5]; 1800 nM in assay [6]. For the same compound, the 50% effective concentration (EC50) amounted to 800 nM in assay [7]; 2100 nM in assay [9]; 800 nM in [10]; 1000 nM in assay [11]; 900 nM in assay [12].

`CC[C@H](C)[C@H](NC(=O)[C@H](Cc1c[nH]c2ccccc12)NC(=O)[C@H](CCCNC(=N)N)NC(C)=O)C(=O)N[C@@H](C)C(=O)N[C@@H](CCC(N)=O)C(=O)N[C@@H](C)C(=O)N[C@@H](CC(C)C)C(=O)N[C@@H](CCCNC(=N)N)C(=O)NC1(C)CCCC=CCCCC(C)(C(=O)N[C@@H](Cc2ccccc2)C(=O)N[C@@H](CC(N)=O)C(=O)N[C@@H](C)C(=O)N[C@@H](Cc2ccc(O)cc2)C(=O)N[C@@H](Cc2ccc(O)cc2)C(=O)N[C@@H](C)C(=O)N[C@@H](CCCNC(=N)N)C(=O)N[C@@H](CCCNC(=N)N)C(N)=O)NC(=O)[C@H](CC(N)=O)NC(=O)CNC(=O)[C@H]([C@@H](C)CC)NC1=O` (some centres unmarked) [SP-23] (Ac-RWIAQALR[ξαMeNle(6-ylidene)]IGN[ξαMeNle(6-ylidene)]FNAYYARR-NH2; staple 9-13): the EC50 in assay [1] is 1000 nM; in assay [2] it was 500 nM; in assay [3], 600 nM; in assay [4], 700 nM; in assay [5], 900 nM; in assay [6], 900 nM. The EC50 in [7] amounted to 1000 nM; in assay [8], 600 nM; in assay [9], 2000 nM; in assay [10], 1000 nM; in assay [11] it was 1800 nM; in [12] it was 600 nM.

For the compound `CC[C@H](C)[C@H](NC(C)=O)C(=O)N[C@@H](Cc1c[nH]c2ccccc12)C(=O)N[C@H](C(=O)N[C@@H](C)C(=O)N[C@@H](CCC(N)=O)C(=O)N[C@@H](C)C(=O)N[C@@H](C)C(=O)N[C@@H](CCCNC(=N)N)C(=O)NC1(C)CCCC=CCCCC(C)(C(=O)N[C@@H](C)C(=O)N[C@@H](CC(N)=O)C(=O)N[C@@H](C)C(=O)N[C@@H](Cc2ccc(O)cc2)C(=O)N[C@@H](Cc2ccc(O)cc2)C(=O)N[C@@H](C)C(=O)N[C@@H](CCCNC(=N)N)C(=O)N[C@@H](CCCNC(=N)N)C(N)=O)NC(=O)CNC(=O)[C@H]([C@@H](C)CC)NC(=O)[C@H](CC(=O)O)NC1=O)[C@@H](C)CC` (some centres unmarked) [SP-24] (Ac-IWIAQAAR[ξαMeNle(6-ylidene)]DIG[ξαMeNle(6-ylidene)]ANAYYARR-NH2; staple 9-13), the EC50 in assay [5], in assay [6], in [8], in assay [9], in assay [10] and in assay [12] was more than 20000 nM each time.

As to `CC[C@H](C)[C@H](NC(C)=O)C(=O)N[C@@H](Cc1c[nH]c2ccccc12)C(=O)N[C@H](C(=O)N[C@@H](C)C(=O)N[C@@H](CCC(N)=O)C(=O)N[C@@H](C)C(=O)N[C@@H](CC(C)C)C(=O)N[C@@H](CCCNC(=N)N)C(=O)NC1(C)CCCC=CCCCC(C)(C(=O)N[C@@H](Cc2ccccc2)C(=O)N[C@@H](CC(N)=O)C(=O)N[C@@H](C)C(=O)N[C@@H](Cc2ccc(O)cc2)C(=O)N[C@@H](Cc2ccc(O)cc2)C(=O)N[C@@H](C)C(=O)N[C@@H](CCCNC(=N)N)C(=O)N[C@@H](CCCNC(=N)N)C(N)=O)NC(=O)[C@H](CC(N)=O)NC(=O)CNC(=O)[C@H]([C@@H](C)CC)NC1=O)[C@@H](C)CC` (some centres unmarked) [SP-25] (Ac-IWIAQALR[ξαMeNle(6-ylidene)]IGN[ξαMeNle(6-ylidene)]FNAYYARR-NH2; staple 9-13), the EC50 was 1000 nM in assay [1]; 600 nM in assay [2]; 900 nM in assay [3]; 600 nM in assay [4]; 500 nM in assay [5]; 1400 nM in [6]. Further, the EC50 in [7] was determined as 900 nM; in assay [8], 500 nM; in [9], 600 nM; in assay [10], 1000 nM; in assay [11], 1800 nM; in assay [12], 1000 nM.

One may read the EC50 as the concentration that produces a half-maximal response.
